Data on 3 molecules can be found in patent US8822509B2, “Pain-relieving compositions and uses therefor” (priority 2006, dated 2014).

Assay [1] addresses T1, μ-opioid receptors (MOP receptors) (Mus musculus, UniProt P42866).
T1 construct: expressed in transfected cells; host or cells: HEK293
It counts as cell-based. How it is done: Briefly, HEK-MOP cells were pre-incubated with 2% (2-hydroxypropyl)-β-cyclodextrin (βCD) for 1 h at 37° C. to deplete cholesterol from caveloae in the cell membrane. Cells were washed with DMEM and then utilized in the forskolin-stimulated cAMP assay as described above. […] Cells were washed with DMEM and then utilized in the forskolin-stimulated cAMP assay as described above.

Assay [2] in a line: In vitro NO release (Total NOx, modified Griess reagent assay). As to conditions: assay of Example 9; for 1 Hour Total NOx: NOx analysis at 1 hour; for 6 Hours Total NOx: NOx analysis at 6 hours. The protocol:
Briefly, HEK-MOP cells were seeded at 1×10^5 cells/mL and grown in 10 cm plates to 90% confluence. Four hours prior to experimentation, cell medium was replaced with phenol red-free DMEM. […] Following removal of each supernatant sample, it was replaced with 500 μL of phenol red-free DMEM. Samples were immediately placed on ice until NOx concentrations were quantified.
Sample aliquots (100 μL) were added to 96-well plates in duplicates. Nitrate was first converted to nitrite to determine total NOx concentrations with the addition of 100 μL aliquots of vanadium (III) chloride in 1M HCl (800 mg/100 mL) per well, followed by 100 μL aliquots of modified Griess reagent which converted nitrite to a deep purple azo derivative for spectrophotometric quantification at 560 nm using an Envision Multilabel Plate Reader (PerkinElmer Life Sciences). […] Total NOx and nitrite concentration was determined through inverse prediction against the nitrite standard curve.
(In general: The Griess reaction detects nitrite, a stable product of nitric oxide.)

Assay [3] deals with T1, μ-opioid receptors (MOP receptors). It counts as cell-based. This is another data set of the same source.

The structures appear in SMILES notation. Read-outs that look alike come from different tables or passages of the source. Marks after values point to notes of the source that are not given here.

T1 sequence (P42866 whole entry): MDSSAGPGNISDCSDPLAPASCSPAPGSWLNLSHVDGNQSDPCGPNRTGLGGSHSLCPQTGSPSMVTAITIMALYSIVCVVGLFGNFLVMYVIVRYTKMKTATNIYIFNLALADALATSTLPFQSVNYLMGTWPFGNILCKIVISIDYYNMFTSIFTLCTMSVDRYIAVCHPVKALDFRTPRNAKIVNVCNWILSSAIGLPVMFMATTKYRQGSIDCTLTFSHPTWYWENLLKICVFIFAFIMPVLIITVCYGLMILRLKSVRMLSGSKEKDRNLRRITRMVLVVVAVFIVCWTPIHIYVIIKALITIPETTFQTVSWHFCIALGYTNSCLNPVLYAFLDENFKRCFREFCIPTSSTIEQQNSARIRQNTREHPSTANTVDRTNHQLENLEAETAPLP

As to `O=C(c1no[n+]([O-])c1-c1ccccc1)C(F)(F)F` [Compound 22], the “% of forskolin stimulated cyclic AMP response” value is on record as 0.3% in assay [1] (Conc 10^−3 M); 18.2% in assay [1] (Conc 10^−4 M); 77.9% in assay [1] (Conc 10^−5 M); 87.5% in assay [1] (Conc 10^−6 M); 68.4% in assay [1] (Conc 10^−7 M); 82.1% in assay [1] (Conc 10^−8 M). The “% of forskolin stimulated cyclic AMP response” value is listed as 65.2% in assay [1] (Conc 10^−9 M); 59.2% in assay [1] (Conc 10^−11 M); 70.5% in assay [1] (Conc 10^−13 M); 104.6% in assay [1] (Conc 10^−14 M); 89.0% in assay [1] (Conc 10^−15 M); 73.2% in assay [1] (Conc 10^−16 M). Moreover, the “% of forskolin stimulated cyclic AMP response” value is recorded as 59.4^b % in assay [1] (Conc 10^−17 M), 47.0% in assay [1] (Conc 10^−18 M), 66.1% in assay [3] (Conc 10^−10 M) and 62.4% in assay [3] (Conc 10^−12 M). Also, the “1 Hour Total NOx” value in assay [2] is 1.63 µM. In addition, the “6 Hours Total NOx” value in assay [2] turned out to be 2.52 µM.

Regarding `COc1ccc(-c2no[n+]([O-])c2C)cc1` [Compound 24], the “% of forskolin stimulated cyclic AMP response” value in assay [1] (Conc 10^−3 M) is 71.2%; in assay [1] (Conc 10^−4 M), 106.7^a %; in assay [1] (Conc 10^−5 M), 131.1^a %; in assay [1] (Conc 10^−6 M) it was 56.7%; in assay [1] (Conc 10^−7 M) it was 94.3%; in assay [1] (Conc 10^−8 M), 53.8^a %. For the same molecule, the “% of forskolin stimulated cyclic AMP response” value is on record as 132.4% in assay [1] (Conc 10^−9 M); 79.4% in assay [1] (Conc 10^−11 M); 82.3% in assay [1] (Conc 10^−13 M); 75.1% in assay [1] (Conc 10^−14 M); 97.0^a % in assay [1] (Conc 10^−15 M); 88.0% in assay [1] (Conc 10^−16 M). In addition, the “% of forskolin stimulated cyclic AMP response” value in assay [1] (Conc 10^−17 M) is 70.0%; in assay [1] (Conc 10^−18 M) it was 70.0%; in assay [3] (Conc 10^−10 M), 60.2%; in assay [3] (Conc 10^−12 M), 90.1%.

Turning to `Cc1c(C(=O)O)no[n+]1[O-]` [Compound 6], the “% of forskolin stimulated cyclic AMP response” value in assay [1] (Conc 10^−3 M) is 8.1%; in assay [1] (Conc 10^−4 M) it was 115.0%; in assay [1] (Conc 10^−5 M), 138.7%; in assay [1] (Conc 10^−6 M) it was 109.7%; in assay [1] (Conc 10^−7 M), 110.5%; in assay [1] (Conc 10^−8 M), 111.2%. In addition, the “% of forskolin stimulated cyclic AMP response” value is 88.2% in assay [1] (Conc 10^−9 M); 88.0% in assay [1] (Conc 10^−11 M); 128.0% in assay [1] (Conc 10^−13 M); 98.2% in assay [1] (Conc 10^−14 M); 79.0^a % in assay [1] (Conc 10^−15 M); 149.0% in assay [1] (Conc 10^−16 M). Moreover, the “% of forskolin stimulated cyclic AMP response” value in assay [1] (Conc 10^−17 M) is 83.9%; in assay [1] (Conc 10^−18 M), 60.4%; in assay [3] (Conc 10^−10 M) it was 61.5%; in assay [3] (Conc 10^−12 M), 91.1%. Also, the “1 Hour Total NOx” value in assay [2] came to 0.31 µM. Further, in assay [2], the “6 Hours Total NOx” value is 0.53 µM.
